The supplement of paper PMC10307832

Experiments:
Assay in all cases: relative viability (nuclei count vs DMSO), 5 days (fraction); higher = more cells survive
[1] = compound: CCC1=CN=CN=C1N2CCN(CC2)CC3=NC4=C(N3)C=C(C=C4)C(F)(F)F + O=C(c1cc(Cc2n[nH]c(=O)c3ccccc23)ccc1F)N1CCN(C(=O)C2CC2)CC1 [Olaparib] (partner 8 µM)
Method in brief: (§1)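 Each reported value is a median over duplicate plates. It expresses relative viability: treated-well nuclei count divided by vehicle-well nuclei count. Lung cancer cell lines in 1536-well plates were dosed by pin tool a day after seeding, alone with one drug or with a fixed anchor-drug dose plus five library-drug doses (not always all listed) in √10 steps, and nuclei were counted after 5 days.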

[2] = compound: CCn1c(-c2nonc2N)nc2cnc(Oc3cccc(NC(=O)c4ccc(OCCN5CCOCC5)cc4)c3)cc21 + CC(=O)c1c(C)c2cnc(Nc3ccc(N4CCNCC4)cn3)nc2n(C2CCCC2)c1=O [Palbociclib] (partner 0.5 µM)
Method in brief: as §1

[3] = compound: CCn1c(-c2nonc2N)nc2cnc(Oc3cccc(NC(=O)c4ccc(OCCN5CCOCC5)cc4)c3)cc21 + COc1cc2c(Oc3ccc(NC(=O)C4(C(=O)Nc5ccc(F)cc5)CC4)cc3F)ccnc2cc1OCCCN1CCOCC1 [Foretinib] (partner 0.25 µM)
Method in brief: as §1

[4] = compound: N=C1NC(=O)/C(=C/c2ccc(O)cc2)S1 [Mirin] + Nc1ncn([C@H]2C[C@H](O)[C@@H](CO)O2)c(=O)n1 [Decitabine] (partner 2 µM)
Method in brief: as §1

Cell Line	relative viability ([1]; first compound 0.04 µM)	relative viability ([1]; first compound 0.1265 µM)	relative viability ([1]; first compound 0.4 µM)	relative viability ([1]; first compound 1.265 µM)	relative viability ([1]; first compound 4 µM)	relative viability ([2]; first compound 0.04 µM)	relative viability ([2]; first compound 0.1265 µM)	relative viability ([2]; first compound 0.4 µM)	relative viability ([2]; first compound 1.265 µM)	relative viability ([2]; first compound 4 µM)	relative viability ([3]; first compound 0.04 µM)	relative viability ([3]; first compound 0.1265 µM)	relative viability ([3]; first compound 0.4 µM)	relative viability ([3]; first compound 1.265 µM)	relative viability ([3]; first compound 4 µM)	relative viability ([4]; first compound 0.25 µM)	relative viability ([4]; first compound 0.7906 µM)	relative viability ([4]; first compound 2.5 µM)	relative viability ([4]; first compound 7.906 µM)	relative viability ([4]; first compound 25 µM)
201T	0.816	0.831	0.866	0.814	0.853	0.359	0.366	0.368	0.354	0.345	1.28	1.11	1.05	0.555	0.598	0.877	0.885	0.842	0.939	1
A549	0.318	0.179	0.333	0.333	0.387	–	–	–	–	–	1.19	0.985	1.06	0.246	0.12	0.311	0.298	0.278	0.305	0.301
A-427	0.683	0.72	0.636	0.698	0.595	0.46	0.495	0.412	0.283	0.275	1.12	0.947	1.14	1.02	1.21	0.554	0.479	0.546	0.521	0.514
ABC-1	–	–	0.646	0.649	0.536	0.647	0.941	0.635	0.332	0.393	0.804	1.29	1.15	0.802	0.417	1.09	0.898	1.16	0.883	0.715
BEN	1.01	1.08	1.03	0.629	0.598	0.473	0.469	0.472	0.77	0.441	0.668	0.449	0.338	0.346	0.351	0.553	0.711	0.661	0.67	0.522
CAL-12T	0.75	0.726	0.721	0.661	0.667	0.778	0.619	0.47	0.345	0.298	1.42	1.3	1.28	0.793	0.51	–	–	–	–	–
COR-L23	0.351	0.316	0.332	0.344	0.356	0.308	0.25	0.129	0.173	0.127	0.91	0.778	0.569	0.182	0.176	0.447	0.505	0.466	0.426	0.409
COR-L 105	0.654	0.711	0.623	0.648	0.762	0.407	0.402	0.344	0.36	0.336	1.25	1	0.874	0.575	0.308	0.596	0.698	0.744	0.667	0.63
Calu-6	0.681	0.591	0.523	0.556	0.483	–	–	–	–	–	1.03	0.832	0.84	0.568	0.507	–	–	–	–	–
ChaGo-K-1	0.392	0.39	0.457	0.431	0.381	1.08	0.896	0.846	0.907	0.928	0.97	0.942	0.908	0.769	0.856	0.412	0.476	0.545	0.516	0.434
EBC-1	0.691	0.644	0.688	0.675	0.699	–	–	–	–	–	0.0933	0.0951	0.0949	0.0808	0.0597	–	–	–	–	–
EKVX	0.877	0.734	0.89	0.684	0.862	0.566	0.368	0.365	0.348	0.329	0.889	0.686	0.708	0.445	0.735	0.317	0.338	0.395	0.361	0.26
EMC-BAC-2	0.505	0.503	0.47	0.447	0.479	0.517	0.458	0.397	0.369	0.389	0.988	1	0.973	0.644	0.565	0.997	1.02	0.977	0.949	1.09
EPLC-272H	0.687	0.693	0.835	0.617	0.695	0.391	0.406	0.302	0.316	0.296	0.829	0.766	0.753	0.74	0.716	0.33	–	0.39	0.34	0.28
H3255	0.597	0.535	0.556	0.504	0.521	0.293	0.311	0.318	0.296	0.305	1.22	0.834	0.679	0.668	0.642	0.595	0.577	0.649	0.467	0.758
HARA	0.743	0.923	0.763	0.737	0.84	0.278	0.232	0.242	0.172	0.199	1.13	1.09	0.906	0.939	0.883	0.768	–	0.644	0.653	0.442
HCC-15	0.688	0.727	0.685	0.762	0.668	0.758	0.665	0.673	0.596	0.7	1.13	0.951	0.998	–	0.906	0.612	0.517	0.618	0.59	0.505
HCC-44	1.02	0.963	0.978	0.99	0.966	1.01	1.01	1.02	1.08	0.878	–	–	–	–	–	0.938	0.958	0.99	0.922	1.01
HCC-78	0.893	0.669	0.79	0.588	0.78	0.446	0.445	0.525	0.533	0.452	0.596	0.584	–	0.64	0.713	0.514	0.764	0.698	0.565	0.657

Cell Line	relative viability ([1]; first compound 0.04 µM)	relative viability ([1]; first compound 0.1265 µM)	relative viability ([1]; first compound 0.4 µM)	relative viability ([1]; first compound 1.265 µM)	relative viability ([1]; first compound 4 µM)	relative viability ([2]; first compound 0.04 µM)	relative viability ([2]; first compound 0.1265 µM)	relative viability ([2]; first compound 0.4 µM)	relative viability ([2]; first compound 1.265 µM)	relative viability ([2]; first compound 4 µM)	relative viability ([3]; first compound 0.04 µM)	relative viability ([3]; first compound 0.1265 µM)	relative viability ([3]; first compound 0.4 µM)	relative viability ([3]; first compound 1.265 µM)	relative viability ([3]; first compound 4 µM)	relative viability ([4]; first compound 0.25 µM)	relative viability ([4]; first compound 0.7906 µM)	relative viability ([4]; first compound 2.5 µM)	relative viability ([4]; first compound 7.906 µM)	relative viability ([4]; first compound 25 µM)
HCC-366	0.38	0.355	0.29	0.349	0.335	0.367	0.375	0.354	0.105	0.0645	0.946	1	0.907	0.937	0.968	0.342	0.315	0.325	0.322	0.374
HCC-827	0.698	0.706	0.721	0.567	0.595	0.49	0.541	0.501	0.455	0.481	1.11	1.05	0.996	0.877	0.751	0.17	0.262	0.36	0.308	0.351
HOP-62	0.377	0.293	0.269	0.458	0.363	0.45	0.371	0.424	0.279	0.365	1.12	1.22	1.02	0.864	0.789	0.221	0.188	0.203	0.224	0.218
IA-LM	0.649	0.838	0.812	0.703	0.765	–	–	–	–	–	1.65	1.39	1.13	1.06	0.898	–	–	–	–	–
LC-2-ad	0.733	0.644	0.661	0.653	0.636	0.563	0.469	0.455	0.355	0.307	1	0.927	0.784	0.529	0.687	0.843	0.814	0.743	0.78	0.921
LCLC-97TM1	0.425	0.418	0.335	0.329	0.278	0.276	0.245	–	0.27	0.281	1.03	1.04	0.813	0.902	0.937	0.239	0.224	0.228	0.179	0.197
LCLC-103H	0.798	0.733	0.743	0.718	0.707	0.478	0.464	0.485	0.429	0.518	0.777	0.91	0.798	0.662	0.624	0.692	0.759	0.736	0.797	0.871
LK-2	0.817	0.675	0.603	0.517	0.712	0.627	0.787	0.541	0.568	0.673	1.23	1.19	1.28	1.26	1.28	0.161	0.206	0.299	0.21	0.227
LOU-NH91	0.892	0.951	0.898	0.896	0.94	0.508	0.476	0.502	0.422	0.421	0.92	0.83	0.697	0.47	0.525	0.799	0.843	0.874	0.9	1.03
LU99A	0.308	0.282	0.276	0.28	0.301	0.502	0.399	0.392	0.405	0.392	0.872	0.886	0.853	0.493	0.476	0.877	0.785	0.94	0.892	0.736
NCI-H522	0.601	0.613	0.573	0.526	0.558	1.18	1.13	0.853	0.909	0.827	–	–	–	–	–	0.576	0.611	0.668	0.654	0.524
NCI-H596	0.737	0.64	0.575	0.649	0.747	–	–	–	–	–	0.961	0.873	0.814	0.742	0.767	1.03	1.2	1	0.993	0.998
NCI-H1299	0.942	0.969	0.975	0.982	0.949	–	–	–	–	–	1.03	1.06	0.969	0.858	0.789	–	–	–	–	–
NCI-H1563	–	–	–	–	–	–	–	–	–	–	0.792	0.786	0.769	0.85	0.666	–	–	–	–	–
NCI-H1623	–	–	–	–	–	–	–	–	–	–	1.08	0.975	0.779	0.727	0.897	–	–	–	–	–
NCI-H1648	0.985	–	–	0.558	0.673	0.277	0.245	0.231	0.474	0.388	–	–	–	–	–	0.559	–	0.51	0.525	0.418
NCI-H1703	0.511	0.536	0.397	0.332	0.396	–	–	–	–	–	0.312	0.326	0.332	0.337	0.264	–	–	–	–	–
NCI-H1792	0.895	0.406	0.369	–	0.399	0.694	0.583	–	0.542	0.582	–	–	–	–	–	0.5	0.504	0.665	0.516	0.573
NCI-H2228	–	0.608	0.551	0.658	0.488	0.852	0.8	0.652	0.683	0.644	1.28	0.946	1.03	0.744	0.731	–	–	–	–	–
